Laboratory results as given in patent publication US10517826B2, “Anthostema senegalense-based composition for use as an anti-AIDS drug” (LABORATOIRE MICHEL IDERNE, priority 2014, dated 2019).
Converted amounts (≈) assume the structure as drawn. Like-named read-outs stand apart in the source and are kept apart here.

Key:
[1] = system: type 1 HIV virus (strain IIIB); test: in vitro anti-HIV test, median inhibitory concentration on HIV-1; assay type: cell-based; settings: HIV-1 Strain IIIB
Protocol: (§1) An apolar extract and a polar extract of Anthostema senegalense were prepared by extraction with dichloromethane and methanol, respectively, from dried stem bark of Anthostema senegalense.
(§2) The efficacy of these extracts against the HIV virus was tested in vitro by measuring the median inhibitory concentration (IC50) of these substances on the type 1 HIV virus (strain IIIB) and on the type 2 virus (strain ROD). Their selectivity index was also measured in each case.
(§3) In order to serve as a control, three known antiretroviral molecules used in the treatment of the infection with HIV: nevirapine, dideoxycitidine and dideoxyinosine were also tested under the same conditions for comparison.

[2] = system: type 2 virus (strain ROD); test: in vitro anti-HIV test, median inhibitory concentration on HIV-2; assay type: cell-based; settings: HIV-2 ROD Strain
Protocol: as §1, §2, §3

| IC50 ([1]; Human immunodeficiency virus 1, read-out: IC50) [µg/mL] | IC50 ([2]; Human immunodeficiency virus 2, read-out: IC50) [µg/mL] | Structure (SMILES) | IC50 [1] [µg/mL] | IC50 [2] [µg/mL] |
| --- | --- | --- | --- | --- |
| – | – | Nc1ccn([C@H]2CC[C@@H](CO)O2)c(=O)n1 [Dideoxycitidine, dideoxycitidine] | 0.29 (≈ 1.37 µM) | 0.30 (≈ 1.42 µM) |
| – | – | O=c1[nH]cnc2c1ncn2[C@H]1CC[C@@H](CO)O1 [Dideoxyinosine, dideoxyinosine] | 2.89 (≈ 12.2 µM) | 4.59 (≈ 19.4 µM) |
| 0.047 (≈ 0.176 µM) | > 4 | Cc1ccnc2c1NC(=O)c1cccnc1N2C1CC1 [Nevirapine, nevirapine] | – | – |
